{
  "source": "paper PMC5570900",
  "about": "“Exploiting a novel conformational switch to control innate immunity mediated by complement protein C3a” (Nature Communications, 2017)",
  "key": {"[1]": {"tested_on": "wild-type human HEK293 cells (C3aR−/−)", "experiment": "Intracellular Ca2+ release in wild-type HEK293 cells", "type": "cell-based"}, "[2]": {"molecular_target": "T1, C3aR (Homo sapiens, UniProt Q16581)", "T1 sequence (Q16581 1-482)": "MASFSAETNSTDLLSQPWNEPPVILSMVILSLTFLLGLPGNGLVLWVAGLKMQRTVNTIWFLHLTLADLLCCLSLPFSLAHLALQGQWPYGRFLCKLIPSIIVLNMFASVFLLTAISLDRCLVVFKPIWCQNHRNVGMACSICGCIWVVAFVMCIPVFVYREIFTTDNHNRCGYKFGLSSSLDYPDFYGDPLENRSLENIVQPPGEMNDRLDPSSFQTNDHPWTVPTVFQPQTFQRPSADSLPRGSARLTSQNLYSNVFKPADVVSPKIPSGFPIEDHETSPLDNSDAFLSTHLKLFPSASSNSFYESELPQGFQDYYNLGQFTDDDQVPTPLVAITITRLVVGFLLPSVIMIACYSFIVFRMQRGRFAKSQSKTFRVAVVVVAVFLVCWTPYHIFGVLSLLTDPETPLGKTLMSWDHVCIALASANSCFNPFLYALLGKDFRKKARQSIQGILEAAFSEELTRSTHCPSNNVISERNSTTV", "experiment": "[125I]-hC3a competition binding on HMDMs", "set-up": "Concentration-dependent Ca^2+ release in human monocyte-derived macrophages (HMDMs); endogenous in cells; host or cells: primary human monocyte-derived macrophages (HMDMs)", "conditions": "[125I]-hC3a 80 pM", "description": "(§1) Receptor binding was performed by ligand competition with labelled 80 pM [^125I]-C3a or 25 pM [^125I]-C5a (2200 Ci/mmol; Perkin Elmer, Torrance, CA, USA) on HMDMs (1.2 × 10^6 cells/ml). HMDMs were treated with [^125I]-C3a or [^125I]-C5a ± various concentrations of unlabelled C3a/C5a or experimental ligands were diluted with assay buffer (50 mM Tris, 3 mM MgCl2, 0.1 mM CaCl2, 0.5% (w/v) BSA, pH 7.4) for 60 min at room temperature. Unbound [^125I]-C3a or [^125I]-C5a was removed by filtration through glass microfibre filter GF/B (Whatman Iner. Ltd, England) and washed three times with cold buffer (50 mM Tris-HCl pH 7.4). Bound [^125I]-C3a or [^125I]-C5a were assessed by scintillation counting on Microbeta counter. Specific binding was defined as the difference between total binding and nonspecific binding as determined in the presence of 1 μM unlabelled C3a or C5a[4]."}, "[3]": {"molecular_target": "T2, C5aR (Homo sapiens, UniProt P21730)", "T2 construct": "endogenous in cells; host or cells: primary human monocyte-derived macrophages (HMDMs)", "T2 sequence (P21730 1-350)": "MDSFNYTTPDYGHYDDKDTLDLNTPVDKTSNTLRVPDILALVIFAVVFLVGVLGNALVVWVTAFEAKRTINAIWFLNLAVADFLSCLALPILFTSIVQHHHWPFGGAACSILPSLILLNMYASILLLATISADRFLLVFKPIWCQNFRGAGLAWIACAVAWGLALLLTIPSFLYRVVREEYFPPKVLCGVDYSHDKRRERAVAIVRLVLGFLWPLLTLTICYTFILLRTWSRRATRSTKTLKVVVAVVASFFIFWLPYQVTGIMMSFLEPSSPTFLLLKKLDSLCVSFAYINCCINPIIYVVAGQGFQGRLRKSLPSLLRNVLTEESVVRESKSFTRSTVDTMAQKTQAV", "experiment": "[125I]-hC5a competition binding on HMDMs", "conditions": "[125I]-hC5a 25 pM", "description": "as §1"}, "[4]": {"molecular_target": "T1, C3aR", "experiment": "Intracellular Ca2+ release in HEK293 cells transfected with C3aR", "type": "cell-based", "set-up": "Concentration-dependent Ca^2+ release in human monocyte-derived macrophages (HMDMs); endogenous in cells; host or cells: primary human monocyte-derived macrophages (HMDMs)"}, "[5]": {"experiment": "Rat liver microsomal stability", "type": "in vitro ADME", "conditions": "rat liver microsomes, NADPH, 37 °C, over 1 h", "description": "(§2) For plasma stability studies, C3a and experimental compounds (10 μL, 1 mM in DMSO) were added to neat rat plasma (190 μL) and heated to 37 °C in a circulating water bath. Aliquots (20 µL) were collected at time points (0, 2, 5 and 10 min for C3a; 0, 5, 15, 30, 60, 120 and 240 min for other test compounds) and added directly to MeCN/H2O (80 µL, 9:1). The samples were centrifuged at 13,000 g for 3 min before supernatants were isolated and analyzed for test compound degradation via LC-MS. For liver microsomal stability studies, commercially available rat liver microsomes from Life Technologies, GIBCO were used. In brief, microsomes stored at −80 °C were slowly defrosted on ice. Test compounds (183 μL, 1 μM in 100 mM phosphate buffer pH 7.4 containing 0.1 % DMSO) were added to microsomes (5 μL) and NADPH (2 µL, 20 mM). Test solutions were heated in a circulating water bath at 37 °C for 5 min before additional cofactor NADPH (10 μL, 20 mM) was added. Aliquots (20 μL) were taken at time points (0, 5, 15, 30 and 60 min from the second addition of NADPH). Aliquots were added to MeCN/H2O (80 μL, 9:1) and centrifuged at 13,000 g for 3 min. Supernatants were analyzed for test compound degradation by LC-MSMS. Concentrations were plotted as a function of time on a semi-logarithmic graph. Rat plasma and microsomal activity was confirmed by rapid degradation of SLIGRL-NH2 (t1/2 < 5 min) in a parallel experiment."}, "[6]": {"experiment": "Rat plasma stability", "type": "in vitro ADME", "conditions": "neat rat plasma, 37 °C, over 4 h (C3a up to 10 min)", "description": "as §2"}},
  "data": [
    {"smiles": "Cc1[nH]c(C(c2ccccc2)c2ccccc2)nc1C(=O)N[C@@H](CCCNC(=N)N)C(=O)O", "note": "[Compound 3]", "values": [
      {"measurement": "Intracellular Ca2+ release", "setting": "[1]", "value": "did not induce Ca^2+ release"},
      {"measurement": "C3aR binding by competition with [125I]-hC3a", "setting": "[2]", "value": "compete with ^125I-labelled C3a"},
      {"measurement": "C5aR binding by competition with [125I]-hC5a", "setting": "[3]", "value": "no binding"},
      {"measurement": "Intracellular Ca2+ release", "setting": "[4]; HEK293 cells transfected with C3aR (C3aR+/+), compound alone", "value": "did induce Ca^2+ release"},
      {"measurement": "Stability in rat liver microsomes", "setting": "[5]", "value": "much more stable than C3a"},
      {"measurement": "Stability in rat plasma", "setting": "[6]", "value": "remained intact"}
    ]},
    {"smiles": "N=C(N)NCCCC(NC(=O)c1ccc(C(c2ccccc2)c2ccccc2)s1)C(=O)O", "note": "(stereo not drawn) [Compound 6]", "values": [
      {"measurement": "Intracellular Ca2+ release", "setting": "[1]", "value": "did not induce Ca^2+ release"},
      {"measurement": "C3aR binding by competition with [125I]-hC3a", "setting": "[2]", "value": "compete with ^125I-labelled C3a"},
      {"measurement": "C5aR binding by competition with [125I]-hC5a", "setting": "[3]", "value": "no binding"},
      {"measurement": "Effect on Ca2+ release induced by C3a or 3", "setting": "[4]; C3aR-HEK293 cells, pre-treatment 30 min before C3a or 3", "value": "prevented"},
      {"measurement": "Stability in rat liver microsomes", "setting": "[5]", "value": "much more stable than C3a"},
      {"measurement": "Stability in rat plasma", "setting": "[6]", "value": "remained intact"}
    ]}
  ]
}
